Measurements as given in patent US8815857B2 (Boehringer Ingelheim International GmbH, priority 2011, dated 2014).
Values after ≈ are worked out from the molar mass of the structure shown.

Assays:
[1] = target: T1, human soluble guanylate cyclase alpha 1 and beta 1 subunits (sGC) stably expressed in Chinese hamster ovary cells (Homo sapiens, UniProt Q02108+Q02153); assay: sGC cellular activator assay: cGMP in CHO cells expressing human sGC, preincubated with ODQ; type: cell-based; conditions: 40 microM ODQ preincubation, 30 min at room temperature, presence or absence of 50% human serum not given, read-out: EC50 nM, Activity of Compounds in Cellular Assay
T1 construct: expressed in transfected cells; host or cells: Chinese hamster ovary cells, stably transfected
T1 sequence (Q02108 1-690 partner): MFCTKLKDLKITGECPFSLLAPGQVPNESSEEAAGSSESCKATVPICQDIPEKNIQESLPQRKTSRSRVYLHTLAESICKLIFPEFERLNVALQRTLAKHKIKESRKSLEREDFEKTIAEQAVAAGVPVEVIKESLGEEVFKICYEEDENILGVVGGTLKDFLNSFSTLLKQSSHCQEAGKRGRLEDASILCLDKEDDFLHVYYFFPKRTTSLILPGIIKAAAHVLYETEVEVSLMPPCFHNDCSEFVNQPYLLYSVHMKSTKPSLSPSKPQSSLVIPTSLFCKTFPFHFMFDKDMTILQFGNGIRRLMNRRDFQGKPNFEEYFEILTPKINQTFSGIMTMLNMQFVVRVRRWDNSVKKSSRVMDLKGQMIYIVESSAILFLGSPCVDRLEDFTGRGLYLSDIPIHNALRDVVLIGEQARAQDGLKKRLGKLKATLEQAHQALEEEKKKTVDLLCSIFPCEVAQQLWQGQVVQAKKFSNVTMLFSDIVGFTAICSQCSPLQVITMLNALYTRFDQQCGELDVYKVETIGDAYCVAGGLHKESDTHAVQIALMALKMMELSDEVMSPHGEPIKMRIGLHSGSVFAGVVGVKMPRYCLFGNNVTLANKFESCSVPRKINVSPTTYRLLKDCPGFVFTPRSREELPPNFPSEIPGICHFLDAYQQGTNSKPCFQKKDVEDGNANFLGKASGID
T1 sequence (Q02153 1-619): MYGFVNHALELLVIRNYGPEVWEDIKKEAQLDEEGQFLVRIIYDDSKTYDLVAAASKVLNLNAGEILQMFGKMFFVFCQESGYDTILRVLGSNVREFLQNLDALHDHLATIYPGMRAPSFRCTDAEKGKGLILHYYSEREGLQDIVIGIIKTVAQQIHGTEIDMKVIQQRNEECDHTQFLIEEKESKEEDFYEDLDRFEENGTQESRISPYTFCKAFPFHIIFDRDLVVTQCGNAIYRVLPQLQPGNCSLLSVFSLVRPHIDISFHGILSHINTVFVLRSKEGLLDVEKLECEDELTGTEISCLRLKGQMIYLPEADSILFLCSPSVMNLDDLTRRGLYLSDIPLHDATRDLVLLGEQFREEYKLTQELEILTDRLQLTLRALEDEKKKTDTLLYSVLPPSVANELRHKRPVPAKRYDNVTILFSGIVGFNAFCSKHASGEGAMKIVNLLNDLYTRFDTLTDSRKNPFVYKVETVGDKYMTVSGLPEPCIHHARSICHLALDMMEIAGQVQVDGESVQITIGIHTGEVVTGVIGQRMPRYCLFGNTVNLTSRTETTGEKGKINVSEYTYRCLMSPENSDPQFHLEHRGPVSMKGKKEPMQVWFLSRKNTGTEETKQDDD
Procedure, shortened: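 EC50 values derive from HTRF cGMP measurement after test compounds act for thirty minutes at room temperature, with or without 50% human serum. Before dosing, the sGC-transfected CHO cells spend one hour with the inhibitor ODQ (40 microM) in IBMX- and 0.1% BSA-containing buffer.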

[2] = Assessment of solubility: HT solubility in pION buffer, UV spectrophotometry; conditions: kinetic from dmso stock
Method: Solubility is measured by the following method.
DMSO stock samples at 10 mM concentration are prepared. […] The samples are pierced and 100 ul of thawed samples are transferred into the PCR plate for analysis. Each sample is run in duplicate at each pH (pH 4.5 and 7.4). Up to 95 samples can be run in replicate at 2 pH's+1 DMSO (blank).
Preparation of pH 4.5 and 7.4 Buffers:
• pH 4.5 buffer:—To 12.5 of system solution (pION)qs to 500 mL of distilled water (pH 2.85-2.90); adjust the pH to pH 4.5 with 0.5 N NaOH. • pH 7.4 buffer: To 12.5 of system solution (pION)qs to 500 mL of distilled water (pH 2.85-2.90); adjust the pH to pH 7.4 with 0.5N NaOH. […] Procedure: Preparation of UV Blank Plate:
75 ul of buffer (pH 7.4 or pH 4.5) is added to UV plate followed by addition of 70 ul of N-propanol. The solution is mixed and the blank spectrum is read using spectrophotometer.
Preparation of Reference UV Plate:
10 ul of each stock sample (including DMSO control) is added to 190 ul of N-propanol to prepare the reference stock plate. Reference stock samples are mixed and 5 ul of each stock sample is added to UV blank plate after it is read spectrophotometrically. The reference stock sample is mixed with blank solution in UV plate and the reference spectrum is read using UV spectrophotometer.
Preparation of Sample for Incubation:
Solubility at pH 7.4:6 ul of each stock sample (including DMSO control) is added to the storage plate containing 600 ul of pH 7.4 buffer, mixed and incubated for 16-19 h. The plate is sealed well during the incubation process. The DMSO content in the sample is 1.0%. The concentration in deep well plates is 100 uM
6 ul of each stock sample (including DMSO control) is added to the deep well plate containing 600 ul of pH 4.5 buffer, mixed and incubated for 16-19 h. The plate is sealed well during the incubation process. The DMSO content in the sample is 1.0%. The concentration in deep well plates is 100 uM
Preparation of Sample UV Plate:
At the end of the incubation period, 100 uL of sample from the storage plate is vacuum filtered using a filter plate. This step wets the filters and the filtrate is discarded. Another 200 ul of the sample from the deep well plate is vacuum filtered using the same filter block but a clean filter plate. 75 ul of the filtrate from the filter plate is transferred to a UV sample plate. 75 ul of N-propanol is added to this UV plate. The solution is mixed and the spectrum is read using the UV spectrophotometer.
The spectra collected for blank, reference and sample from 250-498 nm is analyzed using pION software. If the sample precipitates out, the solubility is reported as XX μg/ml.

[3] = pH 6.8, aqueous buffer, Solubility (pH 6.8), pH 6.8
[4] = pION system solution buffer, pH 4.5, pH 4.5, aqueous buffer, Solubility (pH 4.5), pH 4.5 buffer, 16-19 h incubation, 1.0% DMSO

Row | SMILES | EC50 [1] [nM] | solubility [2, 3] [µg/mL] | solubility [2, 4] [µg/mL] | solubility ([2]; pION system solution buffer, pH 7.4, pH 7.4, aqueous buffer, Solubility (pH 7.4), pH 7.4 buffer, 16-19 h incubation, 1.0% DMSO) [µg/mL]
1 | Cc1ccc(OCc2ccc(CN3CCN(C)C(=O)C3)cc2C)c(-c2csc(N3CC4CCC(C3)C4C(=O)O)n2)c1 (stereo not shown) [Compound 289] | 3.4 | 35 (≈ 60.9 µM) | 1.5 (≈ 2.61 µM) | –
2 | Cc1ccc(OCc2ccc(CN3CCN(C)C(=O)C3C)cc2C)c(-c2csc(N3CC4CCC(C3)C4C(=O)O)n2)c1 (stereo not shown) [Compound 290] | 4.3 | 21 (≈ 35.7 µM) | 0.69 (≈ 1.17 µM) | –
3 | CCN1CCN(Cc2ccc(COc3ccc(C)cc3-c3csc(N4CC5CCC(C4)C5C(=O)O)n3)c(C)c2)CC1=O (stereo not shown) [Compound 291] | 7.6 | 13 (≈ 22.1 µM) | 0.18 (≈ 0.306 µM) | –
4 | Cc1ccc(OCc2ccc(CN3CCN(C(C)C)C(=O)C3)cc2C)c(-c2csc(N3CC4CCC(C3)C4C(=O)O)n2)c1 (stereo not shown) [Compound 293] | 29 | 3.4 (≈ 5.64 µM) | < 0.1 | –
5 | Cc1ccc(OCc2ccc(C(=O)N(C)CCC#N)cc2C)c(-c2csc(N3C[C@H]4CC[C@@H](C3)[C@H]4C(=O)O)n2)c1 [Compound 296] | 50 | 10 (≈ 17.9 µM) | < 0.1 | –
6 | Cc1ccc(OCc2ccc(C(=O)N(C)CCO)cc2C)c(-c2csc(N3C[C@H]4CC[C@@H](C3)[C@H]4C(=O)O)n2)c1 [Compound 297] | 100 | 63 (≈ 115 µM) | 1.7 (≈ 3.09 µM) | –
7 | CCN(CCO)C(=O)c1ccc(COc2ccc(C)cc2-c2csc(N3C[C@H]4CC[C@@H](C3)[C@H]4C(=O)O)n2)c(C)c1 [Compound 298] | 59 | 66 (≈ 117 µM) | 0.32 (≈ 0.568 µM) | –
8 | Cc1ccc(OCc2ccc(C(=O)N3CCCC3)cc2C)c(-c2csc(N3C[C@H]4CC[C@@H](C3)[C@H]4C(=O)O)n2)c1 [Compound 299] | 8.4 | 36 (≈ 66 µM) | 0.17 (≈ 0.312 µM) | –
9 | Cc1ccc(OCc2ccc(C(=O)N3CCN(C)CC3)cc2C)c(-c2csc(N3C[C@H]4CC[C@@H](C3)[C@H]4C(=O)O)n2)c1 [Compound 300] | 44 | 60 (≈ 104 µM) | 53 (≈ 92.2 µM) | –
10 | Cc1ccc(OCc2ccc(C(=O)N3CCC(O)CC3)cc2C)c(-c2csc(N3C[C@H]4CC[C@@H](C3)[C@H]4C(=O)O)n2)c1 [Compound 301] | 57 | 65 (≈ 113 µM) | 0.24 (≈ 0.417 µM) | –
11 | Cc1ccc(OCc2ccc(C(=O)N3CCCCCC3)cc2C)c(-c2csc(N3C[C@H]4CC[C@@H](C3)[C@H]4C(=O)O)n2)c1 [Compound 302] | 35 | 4.6 (≈ 8.02 µM) | < 0.1 | –
12 | CCN(C)C(=O)c1ccc(COc2ccc(C)cc2-c2csc(N3C[C@H]4CC[C@@H](C3)[C@H]4C(=O)O)n2)c(C)c1 [Compound 303] | 11 | 36 (≈ 67.5 µM) | 0.13 (≈ 0.244 µM) | –
13 | Cc1ccc(OCc2ccc(C(=O)N(C)C)cc2C)c(-c2csc(N3C[C@H]4CC[C@@H](C3)[C@H]4C(=O)O)n2)c1 [Compound 304] | 23 | 60 (≈ 115 µM) | < 0.1 | –
14 | Cc1ccc(OCc2ccc(C(=O)N(C)CCN(C)C)cc2C)c(-c2csc(N3C[C@H]4CC[C@@H](C3)[C@H]4C(=O)O)n2)c1 [Compound 305] | 140 | 67 (≈ 116 µM) | 62 (≈ 107 µM) | –
15 | Cc1ccc(OCc2ccc(C(=O)N(C)CC3CCCO3)cc2C)c(-c2csc(N3C[C@H]4CC[C@@H](C3)[C@H]4C(=O)O)n2)c1 (stereo partly shown) [Compound 306] | 21 | 50 (≈ 84.8 µM) | 0.13 (≈ 0.22 µM) | 5.2 (≈ 8.82 µM)
16 | CCN(CCC#N)C(=O)c1ccc(COc2ccc(C)cc2-c2csc(N3C[C@H]4CC[C@@H](C3)[C@H]4C(=O)O)n2)c(C)c1 [Compound 307] | 24 | 37 (≈ 64.6 µM) | 0.15 (≈ 0.262 µM) | –
